Measured values taken from US20230322785A1, “ADENOSINE A2A AND A2B RECEPTOR DUAL ANTAGONISTS FOR IMMUNO-ONCOLOGY” (Merck Sharp & Dohme LLC, priority 2020, published 2023).

Target: T1, human A2A adenosine receptor (Homo sapiens, UniProt P29274)
T1 construct: expressed in transfected cells; host or cells: HEK293 or CHO cells
Test: A2A binding affinity, Method (B): scintillation proximity assay (SPA) with [3H]SCH58261
Details: membranes of HEK293 or CHO cells expressing the human receptor
Description: Method (A) describes the procedure used to measure A2A binding affinity using radioligand binding. Method (B) describes the procedure used to measure A2A binding affinity using SPA technology. The method used to measure A2B binding affinity is also described below. The method used to determine the A2A IC50 value reported for each compound in the table is indicated next to the reported value. The A2B IC50 value measured using the A2B binding affinity assay is shown in the table next to the compound under the corresponding A2A value.
The A2A receptor affinity binding assay measured the amount of binding of a tritiated ligand with high affinity for the A2A adenosine receptor to membranes made from HEK293 or CHO cells recombinantly expressing the human A2A adenosine receptor, in the presence of varying concentrations of a compound of the invention. The data were generated using either filtration binding or a homogenous scintillation proximity assay (SPA).
Method (B): Measurement of A2A Binding Affinity Using SPA
Binding affinity using SPA was conducted as follows. Test compounds (50 nL) were dispensed into individual wells of a 384-well OptiPlate™ well (Perkin Elmer) by Echo® acoustic liquid transfer (Labcyte). 20 µL of 1.25 nM [^3H] SCH58261 ((7-(2-phenylethyl)-5-amino-2-(2-furyl)-pyrazolo-[4,3-e]-1,2,4-triazolo[1,5-c]pyrimidine)) in DPBS assay buffer (Dulbecco’s phosphate buffered saline without calcium and magnesium, ThermoFisher Scientific, Cat. No. A1285601) supplemented with 10 mM MgCl2 was added. A2A receptor-expressing membranes were incubated with 20 µg/mL adenosine deaminase (Roche, Cat. No. 10 102 105 001) for 15 min at room temperature. The receptor-expressing membranes were then combined with wheat germ agglutinin-coated yttrium silicate SPA beads (GE Healthcare, Cat. No. RPNQ0023) in a ratio of […] (w/w) and incubated for 30 min at room temperature. 30 µL of the membrane/bead mixture (0.25 µg and 25 µg per well respectively) were added to the 384-well OptiPlate™ well. To define total and non-specific binding, wells containing 1% DMSO or 1 µM CGS 15943 (Tocris Bioscience, Cat. No. 1699) respectively were also included in the experiment. The plate was incubated for 1 h at room temperature with agitation. The assay plate was then incubated for an h to allow the beads to settle before data were collected using a TopCount® (Perkin Elmer) scintillation counter. After normalization to total and non-specific binding, the percent effect at each compound concentration was calculated. The plot of percent effect versus the log of compound concentration was analyzed electronically using a 4-parameter logistic fit based on the Levenberg-Marquardt algorithm to generate IC50 values.

T1 sequence (P29274 whole entry): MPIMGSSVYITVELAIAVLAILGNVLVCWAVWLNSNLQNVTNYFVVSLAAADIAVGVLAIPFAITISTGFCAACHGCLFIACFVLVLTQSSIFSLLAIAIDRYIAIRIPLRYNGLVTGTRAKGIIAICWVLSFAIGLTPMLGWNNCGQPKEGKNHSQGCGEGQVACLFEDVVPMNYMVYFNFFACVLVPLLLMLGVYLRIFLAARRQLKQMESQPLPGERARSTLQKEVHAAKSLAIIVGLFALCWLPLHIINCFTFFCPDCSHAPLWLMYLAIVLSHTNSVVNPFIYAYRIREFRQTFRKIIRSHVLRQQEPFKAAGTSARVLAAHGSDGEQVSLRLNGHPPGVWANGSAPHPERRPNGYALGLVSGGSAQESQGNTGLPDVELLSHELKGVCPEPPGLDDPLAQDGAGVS

SMILES | IC50 [nM]
COc1cccc2c1nc(N)n1nc(CN(Cc3ccc(C(F)(F)F)cc3)C3CC3)nc21 [Example 8.9, 2-((cyclopropyl(4-(trifluoromethyl)benzyl)amino)methyl)-7-methoxy-[1,2,4]triazolo[1,5-c]quinazolin-5-amine] | 2.5
COc1cccc2c1nc(N)n1nc(CN[C@H](C)[C@@H](O)c3cc(C(F)(F)F)cc(C(F)(F)F)c3)nc21 [Example 10.1, (1S,2R)-2-(((5-amino-7-methoxy-[1,2,4]triazolo[1,5-c]quinazolin-2-yl)methyl)amino)-1-(3,5-bis(trifluoromethyl)phenyl)propan-1-ol] | 40.2
Nc1nc2c(F)cc(F)cc2c2nc(CCNCc3ccc(C(F)(F)F)cc3)nn12 [Example 10.2, 7,9-difluoro-2-(2-((4-(trifluoromethyl)benzyl)amino)ethyl)-[1,2,4]triazolo[1,5-c]quinazolin-5-amine] | 110
COc1cccc2c1nc(N)n1nc(CN(C)c3cccnc3Br)nc21 [Example 10.3, 2-(((2-bromopyridin-3-yl)(methyl)amino)methyl)-7-methoxy-[1,2,4]triazolo[1,5-c]quinazolin-5-amine] | 41.6
CCNCc1nc2c3cccc(OC)c3nc(N)n2n1 [Example 10.4, 2-((ethylamino)methyl)-7-methoxy-[1,2,4]triazolo[1,5-c]quinazolin-5-amine] | 46
COc1cccc2c1nc(N)n1nc(CNCC(F)(F)F)nc21 [Example 10.5, 7-methoxy-2-(((2,2,2-trifluoroethyl)amino)methyl)-[1,2,4]triazolo[1,5-c]quinazolin-5-amine] | 5.9
COc1cccc2c1nc(N)n1nc(CCCNCc3ccc(C(F)(F)F)cc3)nc21 [Example 10.6, 7-methoxy-2-(3-((4-(trifluoromethyl)benzyl)amino)propyl)-[1,2,4]triazolo[1,5-c]quinazolin-5-amine] | 8.7
COc1cccc2c1nc(N)n1nc(CCCNCc3ccc(S(F)(F)(F)(F)F)cc3)nc21 [Example 10.7, 7-methoxy-2-(3-((4-(pentafluoro-λ^6-sulfaneyl)benzyl)amino)propyl)-[1,2,4]triazolo[1,5-c]quinazolin-5-amine] | 45.2
COc1cccc2c1nc(N)n1nc(CN[C@H](C)C(F)(F)F)nc21 [Example 10.8, (R)-7-methoxy-2-(((1,1,1-trifluoropropan-2-yl)amino)methyl)-[1,2,4]triazolo[1,5-c]quinazolin-5-amine] | 3.9
COc1cccc2c1nc(N)n1nc(CN[C@@H](C)C(F)(F)F)nc21 [Example 10.9] | 5.9
COc1cccc2c1nc(N)n1nc(CNC(C)(C)C(F)(F)F)nc21 [Example 10.10, 7-methoxy-2-(((1,1,1-trifluoro-2-methylpropan-2-yl)amino)methyl)-[1,2,4]triazolo[1,5-c]quinazolin-5-amine] | 4.8
COc1cccc2c1nc(N)n1nc(CN(C)c3cccc(Br)n3)nc21 [Example 10.11, 2-(((6-bromopyridin-2-yl)(methyl)amino)methyl)-7-methoxy-[1,2,4]triazolo [1,5-c]quinazolin-5-amine] | 2.2
COc1cccc2c1nc(N)n1nc(CNCC3CC3)nc21 [Example 10.12, 2-(((cyclopropylmethyl)amino)methyl)-7-methoxy-[1,2,4]triazolo[1,5-c]quinazolin-5-amine] | 27.3
COc1cccc2c1nc(N)n1nc(CN(CC(C)O)CC(C)O)nc21 (stereo not drawn) [Example 10.13, 1,1-(((5-amino-7-methoxy-[1,2,4]triazolo[1,5-c]quinazolin-2-yl)methyl)azanediyl)bis(propan-2-ol)] | 32.2
COc1cccc2c1nc(N)n1nc(CNCC3(c4cccc(F)c4)CCOCC3)nc21 [Example 10.14, 2-((((4-(3-fluorophenyl)tetrahydro-2H-pyran-4-yl)methyl)amino)methyl)-7-methoxy-[1,2,4]triazolo[1,5-c]quinazolin-5-amine] | 6.4
COc1cccc2c1nc(N)n1nc(CN(CC(C)F)CC(C)F)nc21 (stereo not drawn) [Example 13.1, 2-((bis(2-fluoropropyl)amino)methyl)-7-methoxy-[1,2,4]triazolo[1,5-c]quinazolin-5-amine] | 3.3

Results, then the molecule that gave them:

IC50 [nM] | SMILES
10 | COc1cccc2c1nc(N)n1nc(CNCC3CCN(c4ncc(F)cn4)CC3)nc21 [Example 14.3, 2-((((1-(5-fluoropyrimidin-2-yl)piperidin-4-yl)methyl)amino)methyl)-7-methoxy-[1,2,4]triazolo[1,5-c]quinazolin-5-amine]
38.2 | COc1cccc2c1nc(N)n1nc(CN(CCC(F)(F)F)CC3CCN(c4ncc(F)cn4)CC3)nc21 [Example 14.4, 2-((((1-(5-fluoropyrimidin-2-yl)piperidin-4-yl)methyl)(3,3,3-trifluoropropyl)amino)methyl)-7-methoxy-[1,2,4]triazolo[1,5-c]quinazolin-5-amine]
3.2 | CCN(Cc1ccc(C(F)(F)F)cc1)Cc1nc2c3cccc(OC)c3nc(N)n2n1 [Example 15.1, 2-((ethyl(4-(trifluoromethyl)benzyl)amino)methyl)-7-methoxy-[1,2,4]triazolo[1,5-c]quinazolin-5-amine]
3 | COc1cccc2c1nc(N)n1nc(CN(Cc3ccc(C(F)(F)F)cc3)CC3CC3)nc21 [Example 15.2, 2-(((cyclopropylmethyl)(4-(trifluoromethyl)benzyl)amino)methyl)-7-methoxy-[1,2,4]triazolo[1,5-c]quinazolin-5-amine]
2.3 | CCCN(Cc1ccc(C(F)(F)F)cc1)Cc1nc2c3cccc(OC)c3nc(N)n2n1 [Example 15.3, 7-methoxy-2-((propyl(4-(trifluoromethyl)benzyl)amino)methyl)-[1,2,4]triazolo[1,5-c]quinazolin-5-amine]
4.2 | COc1cccc2c1nc(N)n1nc(CN(Cc3ccc(C(F)(F)F)cc3)CC(C)C)nc21 [Example 15.4, 2-((isobutyl(4-(trifluoromethyl)benzyl)amino)methyl)-7-methoxy-[1,2,4]triazolo[1,5-c]quinazolin-5-amine]
101 | COc1cccc2c1nc(N)n1nc(CN(CCC(C)C)Cc3ccc(C(F)(F)F)cc3)nc21 [Example 15.5, 2-((isopentyl(4-(trifluoromethyl)benzyl)amino)methyl)-7-methoxy-[1,2,4]triazolo[1,5-c]quinazolin-5-amine]
7.1 | COc1cccc2c1nc(N)n1nc(CN(CCC3CC3)Cc3ccc(C(F)(F)F)cc3)nc21 [Example 15.6, 2-(((2-cyclopropylethyl)(4-(trifluoromethyl)benzyl)amino)methyl)-7-methoxy-[1,2,4]triazolo[1,5-c]quinazolin-5-amine]
3.9 | COc1cccc2c1nc(N)n1nc(CN(Cc3ccc(OC(F)(F)F)cc3)CC3CC3)nc21 [Example 15.7, 2-(((cyclopropylmethyl)(4-(trifluoromethoxy)benzyl)amino)methyl)-7-methoxy-[1,2,4]triazolo[1,5-c]quinazolin-5-amine]
3.2 | CCN(Cc1ccc(OC(F)(F)F)cc1)Cc1nc2c3cccc(OC)c3nc(N)n2n1 [Example 15.8, 2-((ethyl(4-(trifluoromethoxy)benzyl)amino)methyl)-7-methoxy-[1,2,4]triazolo[1,5-c]quinazolin-5-amine]
123 | COc1cccc2c1nc(N)n1nc(CN(Cc3ccc(OC(F)(F)F)cc3)CC3CCCC3)nc21 [Example 15.9, 2-(((cyclopentylmethyl)(4-(trifluoromethoxy)benzyl)amino)methyl)-7-methoxy-[1,2,4]triazolo[1,5-c]quinazolin-5-amine]
8.5 | COc1cccc2c1nc(N)n1nc(CN(Cc3ccc(OC(F)(F)F)cc3)CC3CCC3)nc21 [Example 15.10, 2-(((cyclobutylmethyl)(4-(trifluoromethoxy)benzyl)amino)methyl)-7-methoxy-[1,2,4]triazolo[1,5-c]quinazolin-5-amine]
123 | COc1cccc2c1nc(N)n1nc(CN(Cc3ccc(OC(F)(F)F)cc3)CC3CCCCC3)nc21 [Example 15.11, 2-(((cyclohexylmethyl)(4-(trifluoromethoxy)benzyl)amino)methyl)-7-methoxy-[1,2,4]triazolo[1,5-c]quinazolin-5-amine]
23.6 | COc1cccc2c1nc(N)n1nc(CN(CCc3ccc(C(F)(F)F)cc3)CC3CCC3)nc21 [Example 15.12, 2-(((cyclobutylmethyl)(4-(trifluoromethyl)phenethyl)amino)methyl)-7-methoxy-[1,2,4]triazolo[1,5-c]quinazolin-5-amine]
